{
  "source": "paper PMC6906472",
  "about": "“Purification and biological activity of natural variants synthesized by tridecaptin M gene cluster and in vitro drug-kinetics of this antibiotic class” (Scientific Reports, 2019)",
  "key": {"A. baumannii ATCC 19606 [1]": {"test_system": "A. baumannii ATCC 19606", "settings": "ATCC 19606", "experimental": "(§1) MICs for all the compounds were determined by broth microdilution assay, according to CLSI guidelines[16] as described previously. Haemolysis experiments were performed with fresh rabbit RBCs[11]. All the compounds were tested at a concentration of 128 µg/ml. To obtain rabbit blood, the experiments and the protocols were in accordance with the ethical standards of the Institutional Animal Ethics Committee (IAEC) of the Institute of Microbial Technology approved (Approval no. IAEC/17/11) by Committee for the Purpose of Control And Supervision of Experiments on Animals (CPCSEA, Government of India)."}, "E. coli CF-23 (mcr-1)": {"test_system": "E. coli CF-23 (mcr-1)", "experimental": "as §1"}, "[2]": {"test_system": "K. pneumoniae AH-16 (Col-R)", "experimental": "as §1"}, "[3]": {"test_system": "K. pneumoniae AH-3 (Col-R)", "experimental": "as §1"}, "[4]": {"test_system": "K. pneumoniae ATCC 700603", "experimental": "as §1"}, "K. pneumoniae GMCH 13 [5]": {"test_system": "K. pneumoniae GMCH 13", "experimental": "as §1"}, "K. pneumoniae GMCH 15 [6]": {"test_system": "K. pneumoniae GMCH 15", "experimental": "as §1"}, "K. pneumoniae P3R (M1-R)": {"test_system": "K. pneumoniae P3R (M1-R)", "settings": "broth microdilution, CLSI guidelines; M1-resistant mutant of ATCC 700603", "experimental": "as §1"}, "P. aeruginosa ATCC 27853 [7]": {"test_system": "P. aeruginosa ATCC 27853", "settings": "ATCC 27853", "experimental": "as §1"}, "[8]": {"test_system": "Proteus mirabilis MTCC 1429", "experimental": "as §1"}, "[9]": {"test_system": "Serratia marcescens MTCC 97", "experimental": "as §1"}, "A. baumannii ATCC 19606 [10]": {"test_system": "A. baumannii ATCC 19606", "assay": "microbe, parasite or virus in culture", "settings": "ATCC 19606", "experimental": "(§2) Acinetobacter baumannii ATCC 19606, Pseudomonas aeruginosa ATCC 27853, K. pneumoniae ATCC 700603, K. pneumoniae P3R, K. pneumoniae GMCH 13 and K. pneumoniae GMCH 15 were grown in CA-MHB and adjusted to ~4 × 10^5 CFU/ml. 100 µl of fresh CA-MHB containing carbonyl cyanide m-chlorophenyl hydrazine (CCCP) or phenylalanine-arginine beta-naphthylamide (PAβN) (at a final concentration of their 1/4th of MIC or 1/8th of MIC) was added to the wells of a 96-well flat bottom plate. Tridecaptin M was diluted in a 2-fold manner. 100 µl of culture was added and the plates were incubated for 16 to 18 h at 37 °C and observed for MICs. The fold modulation in MICs of tridecaptin M was calculated by comparing the results in the presence or absence of CCCP and PAβN."}, "K. pneumoniae GMCH 13 [11]": {"test_system": "K. pneumoniae GMCH 13", "assay": "microbe, parasite or virus in culture", "settings": "GMCH 13", "experimental": "as §2"}, "K. pneumoniae GMCH 15 [12]": {"test_system": "K. pneumoniae GMCH 15", "assay": "microbe, parasite or virus in culture", "settings": "GMCH 15", "experimental": "as §2"}, "[13]": {"test_system": "K. pneumoniae P3R (Tri-M Resistant)", "assay": "microbe, parasite or virus in culture", "experimental": "as §2"}, "P. aeruginosa ATCC 27853 [14]": {"test_system": "P. aeruginosa ATCC 27853", "assay": "microbe, parasite or virus in culture", "settings": "ATCC 27853", "experimental": "as §2"}},
  "note": "Square brackets hold non-standard residues; d marks the D form. Peptide text beside a SMILES is read from it. * marks the point of attachment. d(aIle) = CC[C@H](C)[C@@H](N)C(=O)O; X1 = CC[C@H](C)CCCCC(=O)*; dDab = NCC[C@@H](N)C(=O)O; Dab = NCC[C@H](N)C(=O)O",
  "data": [
    {"smiles": "CC[C@H](C)CCCCC(=O)NCC(=O)N[C@H](CCN)C(=O)NCC(=O)N[C@H](CO)C(=O)N[C@H](Cc1c[nH]c2ccccc12)C(=O)N[C@@H](CO)C(=O)N[C@@H](CCN)C(=O)N[C@H](CCN)C(=O)N[C@H](C(=O)N[C@@H](CCC(=O)O)C(=O)N[C@H](C(=O)N[C@@H](C(=O)N[C@@H](CO)C(=O)O)[C@@H](C)CC)[C@@H](C)CC)[C@@H](C)CC", "note": "[M1, tridecaptin M] (X1-G[dDab]G[dS][dW]S[Dab][dDab]IEI[d(aIle)]S-OH)", "values": [
      {"measurement": "Peptide MIC", "setting": "A. baumannii ATCC 19606 [1]", "value": 64, "unit": "µg/mL"},
      {"measurement": "Peptide MIC", "setting": "E. coli CF-23 (mcr-1)", "value": 4, "unit": "µg/mL"},
      {"measurement": "Peptide MIC", "setting": "[2]", "value": 4, "unit": "µg/mL"},
      {"measurement": "Peptide MIC", "setting": "[3]", "value": 4, "unit": "µg/mL"},
      {"measurement": "Peptide MIC", "setting": "[4]", "value": 4, "unit": "µg/mL"},
      {"measurement": "Peptide MIC", "setting": "K. pneumoniae GMCH 13 [5]", "value": 8, "unit": "µg/mL"},
      {"measurement": "Peptide MIC", "setting": "K. pneumoniae GMCH 15 [6]", "value": 16, "unit": "µg/mL"},
      {"measurement": "Peptide MIC", "setting": "K. pneumoniae P3R (M1-R)", "value": 64, "unit": "µg/mL"},
      {"measurement": "Peptide MIC", "setting": "P. aeruginosa ATCC 27853 [7]", "value": ">128", "unit": "µg/mL"},
      {"measurement": "Peptide MIC", "setting": "[8]", "value": ">16", "unit": "µg/mL"},
      {"measurement": "Peptide MIC", "setting": "[9]", "value": 8, "unit": "µg/mL"},
      {"measurement": "Intrinsic Activity; MIC", "setting": "A. baumannii ATCC 19606 [10]", "value": 64, "unit": "µg/mL"},
      {"measurement": "MIC of peptide in the presence of PAβN", "setting": "A. baumannii ATCC 19606 [10]", "value": 64, "unit": "µg/mL"},
      {"measurement": "FICI", "setting": "K. pneumoniae GMCH 13 [11]", "value": 0.75},
      {"measurement": "Intrinsic Activity; MIC", "setting": "K. pneumoniae GMCH 13 [11]", "value": 8, "unit": "µg/mL"},
      {"measurement": "MIC of peptide in the presence of PAβN", "setting": "K. pneumoniae GMCH 13 [11]", "value": 8, "unit": "µg/mL"},
      {"measurement": "Intrinsic Activity; MIC", "setting": "K. pneumoniae GMCH 15 [12]", "value": 16, "unit": "µg/mL"},
      {"measurement": "MIC of peptide in the presence of PAβN", "setting": "K. pneumoniae GMCH 15 [12]", "value": 16, "unit": "µg/mL"},
      {"measurement": "MIC of peptide in the presence of CCCP", "setting": "[13]; CCCP at 1/4th MIC", "value": 64, "unit": "µg/mL"},
      {"measurement": "MIC of peptide in the presence of CCCP", "setting": "[13]; CCCP at 1/8th MIC", "value": 64, "unit": "µg/mL"},
      {"measurement": "MIC of peptide in the presence of PAβN", "setting": "[13]; PAβN at 1/4th MIC", "value": 64, "unit": "µg/mL"},
      {"measurement": "MIC of peptide in the presence of PAβN", "setting": "[13]; PAβN at 1/8th MIC", "value": 64, "unit": "µg/mL"},
      {"measurement": "Intrinsic Activity; MIC", "setting": "[13]; ~4 × 10^5 CFU/ml, CA-MHB, 16 to 18 h, 37 °C", "value": 64, "unit": "µg/mL"},
      {"measurement": "Intrinsic Activity; MIC", "setting": "P. aeruginosa ATCC 27853 [14]", "value": 256, "unit": "µg/mL"},
      {"measurement": "MIC of peptide in the presence of CCCP", "setting": "P. aeruginosa ATCC 27853 [14]", "value": 256, "unit": "µg/mL"},
      {"measurement": "MIC of peptide in the presence of PAβN", "setting": "P. aeruginosa ATCC 27853 [14]", "value": 256, "unit": "µg/mL"}
    ]}
  ]
}
